From patent US20240132484A1, “BROAD SPECTRUM ANTIVIRAL COMPOUNDS TARGETING THE SKI COMPLEX” (priority 2020, published 2024)
“And” between values parts separate entries of the source, which are not always exact repeats. Equal entries are not always repeated. Where two headings read alike, the source gives them in different places.

Tests used:
SARS2 = type: cell-based, SARS-CoV-2; conditions: for Percentage Inhibition Average 1 μM / Screening data (Relative infection to DMSO controls) Average 1 μM: SARS2, 1 μM; for Screening data (Relative infection to DMSO controls) Average 1 μM / Screening data (Relative infection to DMSO controls) Average 5 μM / Screening data (Relative infection to DMSO controls) Average 10 μM / Screening data (Relative infection to DMSO controls) Average 25 μM / Screening data (Relative infection to DMSO controls) Average 50 μM / Average (relative infection to DMSO over the 5 tested concentrations): 100=DMSO control; for Percentage Inhibition Average 5 μM / Screening data (Relative infection to DMSO controls) Average 5 μM: SARS2, 5 μM; for Percentage Inhibition Average 10 μM / Screening data (Relative infection to DMSO controls) Average 10 μM: SARS2, 10 μM; for Percentage Inhibition Average 25 μM / Screening data (Relative infection to DMSO controls) Average 25 μM: SARS2, 25 μM; for Percentage Inhibition Average 50 μM / Screening data (Relative infection to DMSO controls) Average 50 μM: SARS2, 50 μM; for Average (relative infection to DMSO over the 5 tested concentrations): SARS2, average over 1 to 50 uM; for Infection Data: Percentage Infection Relative to Appropriate DMSO Control: avg background subtraction, replicate wells; for Infection Data: Average, Mean: average of Exp 1-3 (SMW475, SMW477, SMW478), n 9
cells (nuclei count) = conditions: for Relative cell count to DMSO controls, Average 1 μM / Relative cell count to DMSO controls, Average 5 μM / Relative cell count to DMSO controls, Average 10 μM / Relative cell count to DMSO controls, Average 25 μM / Relative cell count to DMSO controls, Average 50 μM: toxicity data, 100=DMSO control; for Relative cell count to DMSO controls, Average (for correlation analysis): average value over the 5 tested concentrations (1 to 50 uM); for Toxicity Data: Average, Mean: average of Exp 1-3 (SMW475, SMW477, SMW478), n 9

## Cc1ccc(CN(CCN(C)C)Cc2ccccc2)o1 [SILCS11]
SARS2
  SARS2 antiviral activity: improved activity over SILCS1
  Percentage Inhibition Average 1 μM: 24.29%
  Screening data (Relative infection to DMSO controls) Average 1 μM: 75.71
  Percentage Inhibition Average 5 μM: 21.46%
  Screening data (Relative infection to DMSO controls) Average 5 μM: 78.54
  Percentage Inhibition Average 10 μM: 45.84%
  Screening data (Relative infection to DMSO controls) Average 10 μM: 54.16
  Percentage Inhibition Average 25 μM: 64.99%
  Screening data (Relative infection to DMSO controls) Average 25 μM: 35.01
  Percentage Inhibition Average 50 μM: 79.69%
  Screening data (Relative infection to DMSO controls) Average 50 μM: 20.31
  Average (relative infection to DMSO over the 5 tested concentrations): 52.75
Cells (nuclei count)
  Relative cell count to DMSO controls, Average 1 μM: 111.01
  Relative cell count to DMSO controls, Average 5 μM: 106.15
  Relative cell count to DMSO controls, Average 10 μM: 120.55
  Relative cell count to DMSO controls, Average 25 μM: 105.91
  Relative cell count to DMSO controls, Average 50 μM: 80.38
  Relative cell count to DMSO controls, Average (for correlation analysis): 104.80
Cells (nuclei count); Average of Exp 1-3, 1 uM
  Toxicity Data, Average, Mean (relative to DMSO control): 111.01%
Cells (nuclei count); Average of Exp 1-3, 5 uM
  Toxicity Data, Average, Mean (relative to DMSO control): 106.15%
Cells (nuclei count); Average of Exp 1-3, 10 uM
  Toxicity Data, Average, Mean (relative to DMSO control): 120.55%
Cells (nuclei count); Average of Exp 1-3, 25 uM
  Toxicity Data, Average, Mean (relative to DMSO control): 105.91%
Cells (nuclei count); Average of Exp 1-3, 50 uM
  Toxicity Data, Average, Mean (relative to DMSO control): 80.38%

## Cc1ccc(CN(CCN(C)C)Cc2ccc(C)s2)o1 [SILCS7]
SARS2
  Percentage Inhibition Average 1 μM: 6.07%
  Screening data (Relative infection to DMSO controls) Average 1 μM: 93.93
  Percentage Inhibition Average 5 μM: 7.19%
  Screening data (Relative infection to DMSO controls) Average 5 μM: 92.81
  Percentage Inhibition Average 10 μM: 42.29%
  Screening data (Relative infection to DMSO controls) Average 10 μM: 57.71
  Percentage Inhibition Average 25 μM: 58.04%
  Screening data (Relative infection to DMSO controls) Average 25 μM: 41.96
  Percentage Inhibition Average 50 μM: 68.91%
  Screening data (Relative infection to DMSO controls) Average 50 μM: 31.09
  Average (relative infection to DMSO over the 5 tested concentrations): 63.50
Cells (nuclei count)
  Relative cell count to DMSO controls, Average 1 μM: 110.82
  Relative cell count to DMSO controls, Average 5 μM: 103.66
  Relative cell count to DMSO controls, Average 10 μM: 106.58
  Relative cell count to DMSO controls, Average 25 μM: 103.49
  Relative cell count to DMSO controls, Average 50 μM: 73.73
  Relative cell count to DMSO controls, Average (for correlation analysis): 99.66
Cells (nuclei count); Average of Exp 1-3, 1 uM
  Toxicity Data, Average, Mean (relative to DMSO control): 110.82%
Cells (nuclei count); Average of Exp 1-3, 5 uM
  Toxicity Data, Average, Mean (relative to DMSO control): 103.66%
Cells (nuclei count); Average of Exp 1-3, 10 uM
  Toxicity Data, Average, Mean (relative to DMSO control): 106.58%
Cells (nuclei count); Average of Exp 1-3, 25 uM
  Toxicity Data, Average, Mean (relative to DMSO control): 103.49%
Cells (nuclei count); Average of Exp 1-3, 50 uM
  Toxicity Data, Average, Mean (relative to DMSO control): 73.73%

## Cc1cc(CN(CCN(C)C)Cc2ccncc2)sc1Br [SILCS14]
SARS2; 1 uM, Exp 1 (SMW475)
  Infection Data: Percentage Infection Relative to Appropriate DMSO Control: 112.00% and 92.09% and 122.87%
SARS2; 1 uM, Exp 2 (SMW477)
  Infection Data: Percentage Infection Relative to Appropriate DMSO Control: 91.97% and 93.96% and 99.35%
SARS2; 1 uM, Exp 3 (SMW478)
  Infection Data: Percentage Infection Relative to Appropriate DMSO Control: 112.26% and 106.71% and 118.52%
SARS2; 1 uM
  Infection Data: Average, Mean: 105.53%
SARS2; 5 uM, Exp 1 (SMW475)
  Infection Data: Percentage Infection Relative to Appropriate DMSO Control: 112.88% and 98.55% and 115.50%
SARS2; 5 uM, Exp 2 (SMW477)
  Infection Data: Percentage Infection Relative to Appropriate DMSO Control: 105.78% and 98.21% and 86.55%
SARS2; 5 uM, Exp 3 (SMW478)
  Infection Data: Percentage Infection Relative to Appropriate DMSO Control: 109.15% and 113.38% and 106.22%
SARS2; 5 uM
  Infection Data: Average, Mean: 105.13%
SARS2; 10 uM, Exp 1 (SMW475)
  Infection Data: Percentage Infection Relative to Appropriate DMSO Control: 92.53% and 120.55% and 101.62%
SARS2; 10 uM, Exp 2 (SMW477)
  Infection Data: Percentage Infection Relative to Appropriate DMSO Control: 84.89% and 81.65% and 69.99%
SARS2; 10 uM, Exp 3 (SMW478)
  Infection Data: Percentage Infection Relative to Appropriate DMSO Control: 92.27% and 101.81% and 99.27%
SARS2; 10 uM
  Infection Data: Average, Mean: 93.84%
SARS2; 25 uM, Exp 1 (SMW475)
  Infection Data: Percentage Infection Relative to Appropriate DMSO Control: 11.84% and 13.81% and 11.60%
SARS2; 25 uM, Exp 2 (SMW477)
  Infection Data: Percentage Infection Relative to Appropriate DMSO Control: 19.70% and 19.93% and 22.53%
SARS2; 25 uM, Exp 3 (SMW478)
  Infection Data: Percentage Infection Relative to Appropriate DMSO Control: 9.11% and 11.10% and 12.21%
SARS2; 25 uM
  Infection Data: Average, Mean: 14.65%
SARS2; 50 uM, Exp 1 (SMW475)
  Infection Data: Percentage Infection Relative to Appropriate DMSO Control: 2.09% and 3.52% and 1.22%
SARS2; 50 uM, Exp 2 (SMW477)
  Infection Data: Percentage Infection Relative to Appropriate DMSO Control: 1.91% and −0.25% and −0.24%
SARS2; 50 uM, Exp 3 (SMW478)
  Infection Data: Percentage Infection Relative to Appropriate DMSO Control: 3.06% and 0.62% and 3.25%
SARS2; 50 uM
  Infection Data: Average, Mean: 1.69%
SARS2
  Percentage Inhibition Average 1 μM: −5.53%
  Screening data (Relative infection to DMSO controls) Average 1 μM: 105.53
  Percentage Inhibition Average 5 μM: −5.13%
  Screening data (Relative infection to DMSO controls) Average 5 μM: 105.13
  Percentage Inhibition Average 10 μM: 6.16%
  Screening data (Relative infection to DMSO controls) Average 10 μM: 93.84
  Percentage Inhibition Average 25 μM: 85.35%
  Screening data (Relative infection to DMSO controls) Average 25 μM: 14.65
  Percentage Inhibition Average 50 μM: 98.31%
  Screening data (Relative infection to DMSO controls) Average 50 μM: 1.69
  Average (relative infection to DMSO over the 5 tested concentrations): 64.17
Cells (nuclei count); 1 uM
  Toxicity Data: Average, Mean: 105.49%
Cells (nuclei count)
  Relative cell count to DMSO controls, Average 1 μM: 105.49
  Relative cell count to DMSO controls, Average 5 μM: 103.93
  Relative cell count to DMSO controls, Average 10 μM: 108.29
  Relative cell count to DMSO controls, Average 25 μM: 139.75
  Relative cell count to DMSO controls, Average 50 μM: 16.8
  Relative cell count to DMSO controls, Average (for correlation analysis): 94.85
Cells (nuclei count); 5 uM
  Toxicity Data: Average, Mean: 103.93%
Cells (nuclei count); 10 uM
  Toxicity Data: Average, Mean: 108.29%
Cells (nuclei count); 25 uM
  Toxicity Data: Average, Mean: 139.75%
Cells (nuclei count); 50 uM
  Toxicity Data: Average, Mean: 16.80%
